Series [1] relates to balloon traumatized swine coronary arteries. The series can be described thus: Dose-response study of balloon traumatized swine coronary arteries (Table 14, morphometry). The class given is in vivo.
Series [2] relates to Vascular smooth muscle cells (BO54). The series can be described thus: Scratch-migration assay. The series is classed as cell-based, baboon. Further details: key: −=no migration; +1=minimal; +2=mild; +3=moderate; +4=marked (maximum density; limit of cell contact inhibition) migration. The method, then:
Scratch assays to determine the extent of smooth muscle cell migration inhibition by cytochalasin B were performed in accordance with the following protocol:
Vascular smooth muscle cells (BO54) were derived from explants of baboon aortic smooth muscle, as described in Example 10. The cells were grown in flat bottom, six well tissue culture plates, which hold about 5 ml of medium. The vascular smooth muscle cells were plated at 200,000 cells/well and placed at 37° C. in a humidified 5% CO2 incubator for 18 hours. The wells were then scratched with a sterile portion of a single edge razor blade that was held by clamp or pliers and was brought aseptically into contact with the bottom of the well at a 90° angle. The cells from a small area along the scratch were removed by a sterile cotton tipped applicator while the blade was in contact with the bottom of the well. After incubation, the presence of cells in the “scratched” area is indicative of cell migration across the scratch line.
Briefly, a stock solution of cytochalasin B (Sigma Chemical Co.) in dimethyl sulfoxide (DMSO) at 1 mg/ml was prepared. Test dilutions of cytochalasin B or control medium were added. Each experiment included two sets of plates:
A set: Test agent exposure for 1, 3, 6, 8 and 10 days only; and
B set: Test agent exposure for 1, 3, 6, 8 and 10 days, followed by a seven day recovery time with control medium.
Both sets of plates were fixed (10% formalin in PBS) and stained (0.02% crystal violet) at the end of the timed exposures. Test concentrations for cytochalasin B were 1, 0.1 and 0.01 μg/ml, and a negative medium control was included. Fresh medium and drug were supplied 3 times per week.
In this Table, “M” indicates Migration Grade, wherein −=no migration; +1=minimal; +2=mild; +3=moderate; and +4=marked (maximum density; limit of cell contact inhibition) migration of vascular smooth muscle cells into the cleared area adjacent to the scratch. In this Table, “T” denotes a morphological Toxicity Grade, wherein −=no toxicity; +1=minimal; +2=mild; +3=moderate; and +4=marked toxicity. The migration results are expressed as “Grade in the Cleared Area of the Well/Grade in an Undisturbed Region of the Well.” The toxicity values represent a grade for all cells in each well.

Series [3] concerns balloon traumatized pig femoral arteries. The series can be described thus: Biological stenting of balloon traumatized pig femoral arteries (luminal area morphometry). The class given is in vivo. The method, then: Pig femoral arteries were traumatized as described in Example 7, and then treated with cytochalasin B. About 1.5 to about 2 ml of cytochalasin B at 0.1 μg/ml was infused into portions of the artery that had been separated from other portions by ligatures. The artery was then pressurized for 3 minutes and the fluid aspirated. Approximately 8 to about 30 lambda of the solution is retained in the interstitial space surrounding the cells in the tunica media. Ten femoral arteries (two arteries obtained from each of the 5 pigs that were treated according to the single dose protocol described in Example 7) were then evaluated histologically at 4 days or 3 weeks after cytochalasin B adminstration. The maximal luminal area of each artery was measured and calculated from digitized microscopic images by a BQ System IV computerized morphometric analysis system (R & M Biometrics, Inc., Nashville, Tenn.). This experiment was repeated with 5 additional pigs (two arteries per pig; cytochalasin B dose=0.1 μg/ml, applied for 3 minutes at 1 atm pressure; same time points). The data obtained from the two experiments were combined.
The luminal area of the traumatized and cytochalasin B-treated segments of the arteries were also compared to the luminal area of the normal, untreated region of the femoral artery proximal to the test area. […]

Series [4] in a line: Tissue distribution of cytochalasin B after intravenous administration (TLC). The series is classed as in vivo, mice. The method, then: Cytochalasin B was also administered intravenously to mice at 3.5 mg/kg (in methanol or Tween 20/carboxymethyl cellulose). Mice were sacrificed at 2 minutes, 15 minutes, 30 minutes, 3 hours and 12 hours after cytochalasin B administration and tissue extracts analyzed for cytochalasin by TLC. The maximal recovery of cytochalasin B from tissue extracts was 32%.

The structures appear in SMILES notation.

Consider `C=C1[C@@H](C)[C@H]2[C@H](Cc3ccccc3)NC(=O)[C@]23OC(=O)/C=C/[C@H](O)CCC[C@@H](C)C/C=C/[C@H]3[C@@H]1O` [cytochalasin B], for which the coronary luminal area entry in series [1] (0.1, 1.5 or 10.0 μg/ml, three weeks after intervention) is “sustained arterial dilation”. For the same compound, the “myocardial or arterial lesions (histology)” value in series [1] (in vivo) is “did not result in myocardial or arterial lesions”. In addition, the “Toxicity Grade” value in series [2] (7-day Recovery Post Exposure, Day 1, 1.0 μg/mL) is given as “+2”; in series [2] (7-day Recovery Post Exposure, Day 3, 1.0 μg/mL), “+1”; in series [2] (7-day Recovery Post Exposure, Day 6, 1.0 μg/mL), “+3”; in series [2] (7-day Recovery Post Exposure, Day 8, 1.0 μg/mL) it was “+3”; in series [2] (7-day Recovery Post Exposure, Day 10, 1.0 μg/mL) it was “+3”; in series [2] (Continuous Exposure, Day 1, 1.0 μg/mL), “+3”. For the same compound, the “Toxicity Grade” value in series [2] (Continuous Exposure, Day 3, 0.1 μg/mL) is given as “+1”; in series [2] (Continuous Exposure, Day 3, 1.0 μg/mL) it was “+3”; in series [2] (Continuous Exposure, Day 6, 0.1 μg/mL), “+1”; in series [2] (Continuous Exposure, Day 8, 0.1 μg/mL) it was “+1”; in series [2] (Continuous Exposure, Day 10, 0.1 μg/mL) it was “+1”. In addition, the “lumen area of test region vs normal control segment of the same artery” value in series [3] (0.1 μg/ml for cytochalasin B) is “approximately two times as large”. Besides, in series [3] (0.1 μg/ml, 4 day and 3 week post-treatment), the “luminal area vs other test agents or controls” value is “larger luminal area”. For the same compound, the “artery lumen areas over three weeks vs diluent control” value in series [3] (0.1 μg/ml, two way analysis of variance) was “statistically significant difference (p<0.05)”. In addition, the “toxicity to the vascular smooth muscle cells” value in series [3] (10 μg/ml dose, dose response study) was “appeared to be toxic”. In series [3] (about 0.1 to about 10.0 μg/ml), the “myofilament reformation (electron micrographs)” value was “myofilament reformation was retarded”. The “constriction or vascular remodeling” value in series [3] (pig, in vivo) is “did not undergo the constriction or chronic geometrical (vascular) remodeling”. In addition, the “incidence of mural microthrombi” value in series [3] (vs untreated balloon traumatized arteries) is reported as “decreased”. Also, the acute toxicity entry in series [4] (3.5 mg/kg intravenously) was “no acute toxicity”. For the same compound, the “maximal recovery from tissue extracts” value in series [4] (3.5 mg/kg intravenously) is recorded as 32%. Also, the tissue localization result in series [4] (3.5 mg/kg intravenously) is “localized to the lung and the injection site”. In series [4] (12 hours after administration), the levels in tissues result is reported as “very low levels”.

Source of the values: patent publication US6663881B2 (priority 1993, dated 2003).
